Laboratory results: patent publication US20230404081A1, “A FORMULATION AND A METHOD FOR INDUCING DEFENSE RESPONSE IN PLANTS” (NATIONAL INSTITUTE OF PLANT GENOME RESEARCH, priority 2020, published 2023)

What was measured:
tomato leaves = test: Hypersensitive response like symptoms on tomato leaves under sodium dithionite coated Whatman filter paper stickers; type: in vivo; conditions: tomato leaves (Pusa Rubi), stickers on adaxial surface for 3 hours, followed till 24 h
Experimental: To check whether sodium dithionite is able to induce plants innate immune response, square stickers from Whatman filter papers were coated with sodium dithionite under anoxic conditions (FIG. 4). These stickers were stacked on the adaxial surface of tomato leaves for 3 hours (FIG. 5). The variety of the tomato plant used for the purposes of present disclosure is Pusa Rubi accessed from Indian Agricultural Research Institute, New Delhi, India.

nitric oxide (NO) = type: in vivo, tomato
salicylic acid (SA) = test: Salicylic acid (SA) estimation in distal leaves; conditions: distal leaf samples, 6h post-sodium dithionite treatment, vs control plants
Experimental: Since salicylic acid (SA) is important in the induction of systemic acquired resistance in plants, the distal leaf samples were collected for SA estimation at 6h post-sodium dithionite treatment.

O=S([O-])S(=O)[O-].[Na+].[Na+] [sodium dithionite]
hypersensitive response like symptoms (tomato leaves): Hypersensitive response like symptoms started developing just after the treatment and was increased till 24 h
NO levels (DAF-FM DA) after further treatment with avirulent Pseudomonas syringae (nitric oxide (NO); in vivo): Larger spots representing bursts of NO were observed
NO production (DAF-FM DA) (nitric oxide (NO); tomato leaves treated with sodium dithionite strips alone): Increased microbursts of NO
SA accumulation in distal leaves (salicylic acid (SA)): significant accumulation of SA
